Data set [1] relates to Stage II nauplii of Balanus amphitrite. As to the kind of experiment: barnacle toxicity assay. In kind it is in vivo. As to conditions: Table 3(b); highest concentration tested 25 μg/ml. On the procedure: (§1) Pure compounds were suspended in DMSO and sonicated to obtain a stock solution of 50 mg ml^−1 in DMSO. This stock solution is stored at −20° C. in 4 ml amber screw cap vials. For the bioassays, a small volume of stock solution was added to 1 μm filtered seawater in a glass scintillation vial. This suspension was then sonicated around 10 minutes. Serial dilutions were generated to the required range of concentrations. Serial dilution of the equivalent amounts of DMSO in seawater was used as the control.
(§2) The barnacle bioassay method used follows from the method first introduced by Rittschof et al. (1992), and subsequently by other authors (Willemsen et al., 1998). This method is now standard practice for many antifouling screening of novel compounds.
Toxicity assays were modified from Rittschof et al. (1992). Stage II naupliar larvae used in tests were obtained from Balanus amphitrite adults collected from inter-tidal rock walls at Kranji mangrove, Singapore. Larvae were collected from a container of adults by attraction to a point source of light and transferred to 500 ml of fresh seawater. Next, larvae were re-concentrated with a fiber optic light and added to assays.
Duplicate assays were conducted in 2 ml glass vials (La Pha Pack® PN 11-14-0544) in 1 ml of filtered seawater for 22 to 24 hours. The assays were repeated for confirmation. There were two sets of controls, a blank control consisting of 3 tubes of seawater only, and DMSO control consisting of the equivalent dilution series with DMSO without compound). For the compounds, there were 3 tubes of each for each test concentration. The assay was initiated by addition of barnacle naupliar in 50 μl of seawater. After 22 to 24 hours of incubation at 25-27° C. solutions containing test animals were transferred to a Bogorov tray and scored as living or dead. Moribund larvae were scored as dead. Results were confirmed by repeating the assay. Data were combined and the concentration that caused 50% mortality (LD50) was calculated by probit analysis using a basic computer program (Libermann, 1983). If data were not appropriate for probit analysis, the LD50 was estimated from graphed data.

In data set [2] the test system is cyprids of Balanus amphitrite. As to the kind of experiment: barnacle settlement assay. In kind it is in vivo. As to conditions: for percentage of cyprids that settled: after 24 hours incubation, averaged over two trials; for IC50: Amphibalanus amphitrite, 24 h, Table 3(a), concentration that caused 50% settlement inhibition, 24 hours, cyprids, read-out: ED50 (the source's name). As for the experimental part:
as §1, §2
Barnacle settlement assays were based on methodology from Rittschof et al. (1992). Barnacle larvae from field-collected adults were reared on an algal mixture of 1:1 v/v of Tetraselmis suecica and Chaetoceros muelleri at 25° C., at approximately 5×10^5 cells per ml density. On this regime, larvae metamorphose to cyprids in 5 days. These cyprids were aged at 4° C. for 2-3 days, and 45-70% settlement after 24 hours (Willemsen et al., 1998).
Settlement tests were conducted in 7 ml neutral glass vials (Samco® T1 03N1) 34 mm by 23 mm diameter, with 20-40 cyprids per well. Test solutions were made up to twice the required final concentration. 0.5 ml of test solution was added into each well, and cyprids were transferred into each well in 0.5 ml of seawater. Assays were done in triplicate. As before, there were two sets of controls, a blank control consisting 3 tubes of seawater only, and DMSO control consisting of the equivalent dilution series with DMSO without compound. After 24 hours, larvae that had attached and metamorphosed were enumerated and the result expressed as percentage settlement. Larvae not attached were scored as not settled. The assays were repeated and the concentration that caused 50% settlement inhibition (ED50) was determined by pro bit analysis using a basic computer program (Lieberman, 1983), or by estimation from graphed data.

In data set [3] the test system is marine bacteria strain S9. As to the kind of experiment: disc inhibition assay, strain S9. Type of data set: cell-based, Bacillus algicola. The settings on record: strain 9, 50 μg of compound per disc; for zone of inhibition at 50 µg/disc: Guptibacillus algicola, S9, 24 h, read-out: zone of inhibition. As for the experimental part: (§3) The disc inhibition assay was used. This assay is a conventional method routinely used for screening antibacterial compounds to determine degree of susceptibility to antibacterial compounds. The diameter of the zone of inhibition is proportional to the degree of susceptibility of the bacterial strain. The compounds were tested against 13 strains of marine bacteria isolated from Singapore coastal waters.
(§4) 13 strains of marine bacteria were isolated from fouling communities located in the coastal waters around Singapore. These were characterized in earlier studies and reported in Teo et al. (U.S. patent application Ser. No. 11/265,833) and Choong et al (in prep). In addition, four reference bacterial strains were added tested: Escherichia coli (Strain K12, ATCC 15222), E. coli (strain DH5a), Pseudomonas aeruginosa (strain LMG 12228; ATCC 15692) and P. putida (strain KT2440; ATCC 47054). All the bacteria were also tested against five antibiotics: ampicillin (AMP), tetracycline (TETR), erythromycin (ERY), chloramphenicol (CHL) and streptomycin (STREP).
(§5) Disks comprising the compounds to be tested were prepared as follows. The antibacterial assay, the pure compounds were made up to a concentration of 2 mgml^−1 in DMSO. 25 μl of the stock was pipetted onto each 6 mm sterile disc (Macherey-Nagel #484000) to obtain 50 μg of compound per disc. Equivalent volume of DMSO was used inoculated for the control.
(§6) For all disk inhibition assays, bacterial cultures were grown in marine broth (Pronadisa #1217.00). Sterile swabs dipped into the cultures were used to inoculate Marine Agar plates with a bacterial lawn by smearing the culture over the surface. After inoculating the plates, discs with antibiotics, pharmaceuticals or control blanks were placed on each plate. Each concentration of antibiotic or pharmaceutical was tested with two replicates. After the disks were placed on the agar surface, plates were incubated overnight in the dark at 35° C. After incubation, plates were examined for zones of inhibition or clearing around control and treated disks. The diameter of any zone of clearing or inhibition was measured using Vernier calipers. There were two replicates per treatment, and the average was taken.

For data set [4], the system named is marine bacteria strain S14. The experiment in a line: disc inhibition assay, strain S14. In kind it is cell-based, Vibrio probioticus. As to conditions: strain 14, 50 μg of compound per disc. As for the experimental part:
as §3, §4
(§7) Disks comprising the compounds to be tested were prepared as follows. The antibacterial assay, the pure compounds were made up to a concentration of 2 mgml^−1 in DMSO. […] Equivalent volume of DMSO was used inoculated for the control.
as §6

Data set [5] concerns marine bacteria strain S30. The experiment in a line: disc inhibition assay, strain S30. Type of data set: cell-based, Bacillus borophilicus. As to conditions: strain 30, 50 μg of compound per disc; for zone of inhibition at 50 µg/disc: Bacillus, S30, 24 h, read-out: zone of inhibition. On the procedure:
as §3, §4, §5, §6

The subject of data set [6] is marine bacteria strain S28. The experiment in a line: disc inhibition assay, strain S28. Type of data set: cell-based, Arthrobacter protophormial. As to conditions: strain 28, 50 μg of compound per disc; for zone of inhibition at 50 µg/disc: Arthrobacter, S28, 24 h, read-out: zone of inhibition. On the procedure: as §3, §4, §5, §6
The test system of data set [7] is marine bacteria strain S4. The experiment in a line: disc inhibition assay, strain S4. Type of data set: cell-based, Bacillus algicola. As to conditions: strain 4, 50 μg of compound per disc; for zone of inhibition at 50 µg/disc: Guptibacillus algicola, S4, 24 h, read-out: zone of inhibition. On the procedure: as §3, §4, §5, §6
Data set [8] deals with marine bacteria strain S29. The experiment in a line: disc inhibition assay, strain S29. In kind it is cell-based, Bacillus hwajinpoensis. As to conditions: strain 29, 50 μg of compound per disc; for zone of inhibition at 50 µg/disc: Guptibacillus hwajinpoensis, S29, 24 h, read-out: zone of inhibition. As for the experimental part: as §3, §4, §5, §6
For data set [9], the system named is marine bacteria strain S27. The experiment in a line: disc inhibition assay, strain S27. In kind it is cell-based, Tenacibaculum lutimaris. As to conditions: strain 27, 50 μg of compound per disc; for zone of inhibition at 50 µg/disc: Tenacibaculum lutimaris, S27, 24 h, read-out: zone of inhibition. As for the experimental part:
as §3, §4, §5, §6

Data set [10] relates to marine bacteria strain S1. As to the kind of experiment: disc inhibition assay, strain S1. In kind it is cell-based, Rhodovulum iodosum. As to conditions: strain 1, 50 μg of compound per disc. As for the experimental part: as §3, §4, §5, §6
Data set [11] deals with marine bacteria strain S10. As to the kind of experiment: disc inhibition assay, strain S10. The settings on record: strain 10, 50 μg of compound per disc; for zone of inhibition at 50 µg/disc: Halobacillus trueperi, S10, 24 h, read-out: zone of inhibition. Type of data set: cell-based, Halobacillus trueperi. As for the experimental part: as §3, §4, §5, §6
The test system of data set [12] is marine bacteria strain S18. As to the kind of experiment: disc inhibition assay, strain S18. In kind it is cell-based, Microbacterium esteraromaticum. The settings on record: strain 18, 50 μg of compound per disc; for zone of inhibition at 50 µg/disc: Microbacterium esteraromaticum, S18, 24 h, read-out: zone of inhibition. On the procedure:
as §3, §4, §7, §6

Data set [13] concerns marine bacteria strain S16. As to the kind of experiment: disc inhibition assay, strain S16. As to conditions: for zone of inhibition at 50 µg/disc: Pseudoalteromonas piscicida, S16, 24 h. In kind it is cell-based, Pseudoalteromonas piscicida. As for the experimental part: as §3, §4, §5, §6
In data set [14] the test system is marine bacteria strain S3. The experiment in a line: disc inhibition assay, strain S3. In kind it is cell-based, Erythrobacter aquimaris. The settings on record: strain 3, 50 μg of compound per disc; for zone of inhibition at 50 µg/disc: Qipengyuania aquimaris, S3, 24 h, read-out: zone of inhibition. On the procedure: as §3, §4, §5, §6
Data set [15] has as its system marine bacteria strain S17. The experiment in a line: disc inhibition assay, strain S17. Type of data set: cell-based, Gordonia terrae. As to conditions: strain 17, 50 μg of compound per disc; for zone of inhibition at 50 µg/disc: Gordonia terrae, S17, 24 h, read-out: zone of inhibition. As for the experimental part:
as §3, §4, §5, §6

Setting [16] is: strain 16, 50 μg of compound per disc.

Read-outs that look alike come from different tables or passages of the source.

Molecule `CCCCCCC(C(=O)N1CCCCC1)c1ccccc1` (stereo not shown) [Compound 12.11] returned an LD50 in [1] greater than 25 µg/mL.
As for `CCCCCCC(CCCC)C(=O)N1CCCCC1` (stereo not shown) [Compound 12.8], the “percentage of cyprids that settled” value worked out at 25.82% in data set [2] (0.2 ug/ml), 8.62% in data set [2] (1 ug/ml), 0% in [2] (5 ug/ml) and 0% in [2] (25 ug/ml). Besides, the IC50 in data set [2] is less than 10 µg/mL. For the same molecule, the LD50 in data set [1] was 3.35 µg/mL.
Take `CCCCCCCCCCC(CCCCCCCC)C(=O)N1CCCCC1` (stereo not shown) [Compound 12.10]: the “percentage of cyprids that settled” value stood at 12.5% in data set [2] (0.2 ug/ml), 13.00% in data set [2] (1 ug/ml), 11.40% in data set [2] (5 ug/ml) and 17.88% in data set [2] (25 ug/ml). The molecule further came in with an LD50 in data set [1] greater than 25 µg/mL.
Broadly, the zone of inhibition is the extent of the growth-free halo in a diffusion test. On to `CCCCC(CCCC)C(=O)N1CCCCC1` [Compound 12.2, 2-Butyl-1-(piperidin-1-yl)hexan-1-one], for which the zone of inhibition at 50 µg/disc in data set [3], in [5], in data set [6], in data set [7], in data set [8] and in data set [9] was 2 to 5 mm throughout. Moreover, the zone of inhibition at 50 µg/disc lay within 2 to 5 mm in data set [11], 5 to 10 mm in data set [12], 5 to 10 mm in data set [14] and 2 to 5 mm in data set [15]. Also, the zone of inhibition result in data set [4], in data set [10] and in data set [13] (setting [16]) was “−” in each case. The “percentage of cyprids that settled” value is on record as 8.94% in data set [2] (0.2 ug/ml), 8.42% in data set [2] (1 ug/ml), 8.37% in [2] (5 ug/ml) and 0% in [2] (25 ug/ml).
Regarding `CN1CCC(O)(c2ccc(Cl)cc2)CC1` [Compound 4.6], the zone of inhibition at 50 µg/disc in data set [3] and in data set [13] was 2 to 5 mm in each case. Besides, the zone of inhibition result in data set [4], in [5], in [6], in [7], in data set [8] and in [9] was “−” throughout. Further, the zone of inhibition result in data set [10], in data set [11], in data set [12], in data set [14] and in data set [15] was “−” throughout. The IC50 in data set [2] is less than 10 µg/mL.
Molecule `CCCCCCC(CCCCCC)C(=O)N1CCCCC1` [Compound 12.12] had an LD50 in data set [1] of 0.2 to 1 µg/mL.
On to `CCCCC(C(=O)N1CCCCC1)c1ccccc1` (stereo not shown) [Compound 12.1, 2-Phenyl-1-(piperidin-1-yl)hexan-1-one], for which the zone of inhibition at 50 µg/disc in [3], in data set [5], in data set [6], in [7], in data set [8] and in data set [9] was 2 to 5 mm each time. Moreover, the zone of inhibition at 50 µg/disc in [11] was 2 to 5 mm; in data set [12], 2 to 5 mm; in [14], 5 to 10 mm; in data set [15] it was 2 to 5 mm. Besides, the zone of inhibition result in data set [4], in data set [10] and in data set [13] (setting [16]) was “−” throughout.
`O=C(C(c1ccccc1)c1ccccc1)N1CCC(O)CC1` [Compound 9.3]: the zone of inhibition entry in data set [3], in [4], in data set [5], in data set [6], in [7] and in data set [8] was “−” in each case. Further, the zone of inhibition result in data set [9], in [10], in data set [12], in [14] and in data set [15] was “−” each time. Besides, the zone of inhibition at 50 µg/disc in data set [11] is 2 to 5 mm; in [13] (strain 16, 50 μg of compound per disc, read-out: zone of inhibition), 2 to 5 mm.

The values are drawn from US20160311788A1, “Antifouling Compounds And Use Thereof” (National University of Singapore, priority 2008, published 2016).
